Experimental data published in US7786165B2, “Aminophenylpropanoic acid derivative” (Takeda Pharmaceutical Company Limited, priority 2004, dated 2010).
Structures can show the parent of a compound that is named as a salt.

Target: T1, human GPR40 (Homo sapiens, UniProt O14842)
T1 construct: expressed in transfected cells; host or cells: CHO cell line stably expressing human GPR40
Assay: Determination of EC50 for human GPR40: intracellular calcium change by FLIPR in CHO cells stably expressing human GPR40
Type: cell-based
Details: CHO cell line stably expressing human GPR40, changes in intracellular calcium concentration, Fluo3-AM, read-out: EC50 (Receptor Function Modulating Action On GPR40)
Description: Determination of EC50 of the Compound of the Present Invention for Human GPR40
For determination of EC50, CHO cell line that stably expressed human GPR40 was used. Unless otherwise indicated, the CHO cell line was cultured using α-MEM medium (Invitrogen) containing 10% fetal calf serum (Invitrogen).
The cells cultured to nearly confluent were rinsed with PBS (Invitrogen) on the previous day of the assay, peeled off with 0.05% Trypsin-EDTA solution (Invitrogen) and recovered by centrifugation. The number of the obtained cells was counted, and the cells were diluted such that 3×10^5 cells were contained per 1 mL of the medium, dispensed to a black welled 96-well plate (coster) by 100 μL per well and cultured overnight in a CO2 incubator. Various test compounds were added to the CHO cells thus prepared, and the changes in the intracellular calcium concentration were measured using FLIPR (Molecular Device). The below-mentioned pre-treatment was applied to measure changes in the intracellular calcium concentration by FLIPR.
First, an assay buffer for adding a fluorescence dye Fluo3-AM (DOJIN) to the cells, or for washing the cells immediately before FLIPR assay was prepared. To a solution of HBSS (Invitrogen, 1000 mL) to which 1M HEPES (pH 7.4, DOJIN, 20 mL) added (hereinafter HBSS/HEPES solution) was added a solution (10 mL) obtained by dissolving probenecid (Sigma, 710 mg) in 1N NaOH (5 mL), and adding and mixing an HBSS/HEPES solution (5 mL), and the resulting solution was used as an assay buffer. Next, Fluo3-AM (50 μg) was dissolved in dimethylsulfoxide (Wako, 21 μL), and an equivalent amount of 20% pluronic acid (Molecular Probes) was added and mixed. The solution was added to the assay buffer (10.6 mL) supplemented with fetal vovine serum (105 μL) to give a fluorescence dye solution. The medium of the CHO cells inoculated to the black welled 96-well plate on the previous day of assay was removed, the fluorescence dye solution was immediately dispensed by 100 μL per well and the cells were cultured in a CO2 incubator for 1 hr to allow intake of the fluorescence dye by the cells. The cells after the culture were washed with the above-mentioned assay buffer and set on FLIPR. The test compound was diluted with dimethylsulfoxide in advance, dispensed to polypropylene 96-well plate (sample plate) by […], and cryopreserved at −20° C. To the thawed sample plate was added an assay buffer containing 0.015% CHAPS (DOJIN) by 198 μL, and simultaneously set on FLIPR together with the cell plate. After the aforementioned pre-treatment, changes in the intracellular calcium concentration upon addition of various test compounds as measured by FLIPR. Based on the results, a dose-response curve of each test compound was formed and EC50 was calculated.

T1 sequence (O14842 whole entry): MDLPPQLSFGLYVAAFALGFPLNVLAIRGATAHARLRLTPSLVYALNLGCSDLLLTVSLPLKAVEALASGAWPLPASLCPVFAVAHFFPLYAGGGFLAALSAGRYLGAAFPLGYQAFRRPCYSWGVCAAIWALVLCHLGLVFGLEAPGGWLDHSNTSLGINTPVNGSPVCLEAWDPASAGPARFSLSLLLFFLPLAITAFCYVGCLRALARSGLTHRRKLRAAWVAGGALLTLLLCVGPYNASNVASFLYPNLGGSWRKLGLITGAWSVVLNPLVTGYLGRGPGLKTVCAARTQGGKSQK

EC50, < 0.1 µM:
Cc1cc(OCCCN2CCCC2=O)cc(C)c1-c1cccc(CNc2ccc(CCC(=O)O)c(F)c2)c1 [Example 149, 3-{4-[({2′,6′-dimethyl-4′-[3-(2-oxopyrrolidin-1-yl)propoxy]biphenyl-3-yl}methyl)amino]-2-fluorophenyl}propanoic acid benzenesulfonate]
Cc1cc(OCC2(C)COC2)cc(C)c1-c1cccc(CNc2ccc(CCC(=O)O)c(F)c2)c1 [Example 151, 3-{4-[({2′,6′-dimethyl-4′-[(3-methyloxetan-3-yl)methoxy]biphenyl-3-yl}methyl)amino]-2-fluorophenyl}propanoic acid methanesulfonate]
COc1cccc(Oc2cc(C)c(-c3cccc(CNc4ccc(CCC(=O)O)c(F)c4)c3)c(C)c2)n1 [Example 164, 3-{2-fluoro-4-[({4′-[(6-methoxypyridin-2-yl)oxy]-2′,6′-dimethylbiphenyl-3-yl}methyl)amino]phenyl}propanoic acid dihydrochloride]
CC(C)(C)c1cc(COc2ccccc2)n(Cc2ccc(CNc3ccc(CCC(=O)O)c(F)c3)cc2)n1 [Example 169, 3-{4-[(4-{[3-tert-butyl-5-(phenoxymethyl)-1H-pyrazol-1-yl]methyl}benzyl)amino]-2-fluorophenyl}propanoic acid dimethanesulfonate]
CC(C)(C)c1cc(OCc2ccccc2)n(Cc2ccc(CNc3ccc(CCC(=O)O)c(F)c3)cc2)n1 [Example 171, 3-{4-[(4-{[5-(benzyloxy)-3-tert-butyl-1H-pyrazol-1-yl]methyl}benzyl)amino]-2-fluorophenyl}propanoic acid dimethanesulfonate]
CCOCCS(=O)(=O)c1cc(C)c(-c2cccc(CNc3ccc(CCC(=O)O)c(F)c3)c2)c(C)c1 [Example 184, 3-{4-[({4′-[(2-ethoxyethyl)sulfonyl]-2′,6′-dimethylbiphenyl-3-yl}methyl)amino]-2-fluorophenyl}propanoic acid]
Cc1cc(OCC2(O)CCS(=O)(=O)CC2)cc(C)c1-c1cccc(CNc2ccc(CCC(=O)O)c(F)c2)c1 [Example 188, 3-{2-fluoro-4-[({4′-[(4-hydroxy-1,1-dioxidotetrahydro-2H-thiopyran-4-yl)methoxy]-2′,6′-dimethylbiphenyl-3-yl}methyl)amino]phenyl}propanoic acid]
CCN(CCOc1cc(C)c(-c2cccc(CNc3ccc(CCC(=O)O)c(F)c3)c2)c(C)c1)C(C)=O [Example 200, 3-(4-{[(4′-{2-[acetyl(ethyl)amino]ethoxy}-2′,6′-dimethylbiphenyl-3-yl)methyl]amino}-2-fluorophenyl)propanoic acid methanesulfonate]
Cc1cc(OC2CCS(=O)(=O)CC2)cc(C)c1-c1cccc(CNc2ccc(CCC(=O)O)c(F)c2)c1 [Example 204, 3-{4-[({4′-[(1,1-dioxidotetrahydro-2H-thiopyran-4-yl)oxy]-2′,6′-dimethylbiphenyl-3-yl}methyl)amino]-2-fluorophenyl}propanoic acid methanesulfonate]
O=C(O)CCc1ccc(NC2CCc3cc(OCc4ccccc4)ccc32)cc1 (stereo not drawn) [Example 210, 3-(4-{[5-(benzyloxy)-2,3-dihydro-1H-inden-1-yl]amino}phenyl)propanoic acid]
O=C(O)CCc1ccc(NC2CCc3c(Oc4ccccc4)cccc32)cc1 (stereo not drawn) [Example 212, 3-{4-[(4-phenoxy-2,3-dihydro-1H-inden-1-yl)amino]phenyl}propanoic acid]
Cc1cccc(C)c1-c1cccc2c1CCC2Nc1ccc(CCC(=O)O)c(F)c1 (stereo not drawn) [Example 218, 3-(4-{[4-(2,6-dimethylphenyl)-2,3-dihydro-1H-inden-1-yl]amino}-2-fluorophenyl)propanoic acid]
